Data as given in US10584115B2, “Substituted pyridine and pyrazine BMI-1 inhibitors” (PTC Therapeutics, Inc., priority 2013, dated 2020).

tested on: Bmi-1 protein; assay: Sandwich ELISA Assay (Bmi-1 protein level in HT-1080 cells after compound treatment); type: cell-based; conditions: Table 1, Bmi-1 sandwich ELISA, read-out: ELISA EC50 value for Bmi-1 protein
In short: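 Sandwich ELISA quantified Bmi-1 protein against recombinant standard (125–8000 pg/mL), with lysates captured overnight at 4 °C and signal by HRP/TMB at 450 nm (570 nm reference). Lysates came from HT-1080 cells incubated 40–48 h with test compounds in 0.5% DMSO.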

SMILES	EC50 [nM]
N#Cc1cc(Nc2ccc(C(F)(F)F)cc2)nc(-c2c(CO)nc3ccccn23)c1 [compound 288, 2-[2-(hydroxymethyl)imidazo[1,2-a]pyridin-3-yl]-6-{[4-(trifluoromethyl)phenyl]amino}pyridine-4-carbonitrile]	10 to 100
Cc1nc2ncccc2n1-c1cc(NC(=O)OC(C)(C)C)cc(Nc2ccc(C(F)(F)F)cc2)n1 [compound 290, tert-butyl[2-(2-methyl-1H-imidazo[4,5-b]pyridin-1-yl)-6-{[4-(trifluoromethyl)phenyl]amino}pyridin-4-yl]carbamate]	100 to 3000
OCCNc1cc(Nc2ccc(C(F)(F)F)cc2)nc(-c2c(C(F)(F)F)nc3ccc(F)cn23)c1 [compound 291, 2-[(2-[6-fluoro-2-(trifluoromethyl)imidazo[1,2-a]pyridin-3-yl]-6-{[4-(trifluoromethyl)phenyl]amino}pyridin-4-yl)amino]ethanol]	10 to 100
Fc1cnc2nc(C3CC3)n(-c3cncc(Nc4ccc(C(F)(F)F)cc4)n3)c2c1 [compound 293, 6-(2-cyclopropyl-6-fluoro-1H-imidazo[4,5-b]pyridin-1-yl)-N-[4-(trifluoromethyl)phenyl]pyrazin-2-amine]	10 to 100
Cc1nc(Br)cn1-c1cncc(Nc2ccc(C(F)(F)F)cc2)n1 [compound 298, 6-(4-bromo-2-methyl-1H-imidazol-1-yl)-N-[4-(trifluoromethyl)phenyl]pyrazin-2-amine]	100 to 3000
CNCc1nc2ccccn2c1-c1cncc(Nc2ccc(C(F)(F)F)cc2)n1 [compound 302, 6-{2-[(methylamino)methyl]imidazo[1,2-a]pyridin-3-yl}-N-[4-(trifluoromethyl)phenyl]pyrazin-2-amine]	100 to 3000
Cc1nc(C(F)(F)F)cn1-c1cncc(Nc2ccc(C(F)(F)F)cc2)n1 [compound 303, 6-[2-methyl-4-(trifluoromethyl)-1H-imidazol-1-yl]-N-[4-(trifluoromethyl)phenyl]pyrazin-2-amine]	100 to 3000
Fc1ccc2ncc(-c3cncc(Nc4ccc(C(F)(F)F)cc4)n3)n2c1 [compound 308, 6-(6-fluoroimidazo[1,2-a]pyridin-3-yl)-N-[4-(trifluoromethyl)phenyl]pyrazin-2-amine]	100 to 3000
COc1c(F)cc(Nc2cc(C#N)cc(-c3c(C)nc4ccc(F)cn34)n2)cc1F [compound 313, 2-[(3,5-difluoro-4-methoxyphenyl)amino]-6-(6-fluoro-2-methylimidazo[1,2-a]pyridin-3-yl)pyridine-4-carbonitrile]	1 to 10
COc1cc(Nc2cc(C#N)cc(-c3c(C)nc4ccc(F)cn34)n2)ccc1F [compound 314, 2-[(4-fluoro-3-methoxyphenyl)amino]-6-(6-fluoro-2-methylimidazo[1,2-a]pyridin-3-yl)pyridine-4-carbonitrile]	100 to 3000
FC(F)(F)COc1ccc(Nc2cncc(-c3c(C(F)(F)F)nc4ccccn34)n2)cc1 [compound 321, N-[4-(2,2,2-trifluoroethoxy)phenyl]-6-[2-(trifluoromethyl)imidazo[1,2-a]pyridin-3-yl]pyrazin-2-amine]	10 to 100
FC(F)C(F)(F)Oc1ccc(Nc2cncc(-c3c(C(F)(F)F)nc4ccccn34)n2)cc1 [compound 322, N-[4-(1,1,2,2-tetrafluoroethoxy)phenyl]-6-[2-(trifluoromethyl)imidazo[1,2-a]pyridin-3-yl]pyrazin-2-amine]	100 to 3000
OCc1nc2ccc(F)cn2c1-c1cncc(Nc2ccc(C(F)(F)F)cc2)n1 [compound 328, [6-fluoro-3-(6-{[4-(trifluoromethyl)phenyl]amino}pyrazin-2-yl)imidazo[1,2-a]pyridin-2-yl]methanol]	1 to 10

Continued, values first:

EC50 [nM]	SMILES
100 to 3000	Cc1nc2c([N+](=O)[O-])cccc2n1-c1cncc(Nc2ccc(C(F)(F)F)cc2)n1 [compound 284, 6-(2-methyl-4-nitro-1H-benzimidazol-1-yl)-N-[4-(trifluoromethyl)phenyl]pyrazin-2-amine]
10 to 100	Cc1nc2ccc(N)cc2n1-c1cncc(Nc2ccc(C(F)(F)F)cc2)n1 [compound 285, 2-methyl-1-(6-{[4-(trifluoromethyl)phenyl]amino}pyrazin-2-yl)-1H-benzimidazol-6-amine]
1 to 10	Cc1nc2ncccc2n1-c1cc(N)cc(Nc2ccc(C(F)(F)F)cc2)n1 [compound 292, 6-(2-methyl-1H-imidazo[4,5-b]pyridin-1-yl)-N^2-[4-(trifluoromethyl)phenyl]pyridine-2,4-diamine]
100 to 3000	Cc1nc2cc(F)c(F)cc2n1-c1cncc(Nc2ccc(Cl)c(F)c2)n1 [compound 294, N-(4-chloro-3-fluorophenyl)-6-(5,6-difluoro-2-methyl-1H-benzimidazol-1-yl)pyrazin-2-amine]
10 to 100	Cc1nc2cc(F)c(F)cc2n1-c1cncc(Nc2ccc(C(F)(F)F)c(F)c2)n1 [compound 295, 6-(5,6-difluoro-2-methyl-1H-benzimidazol-1-yl)-N-[3-fluoro-4-(trifluoromethyl)phenyl]pyrazin-2-amine]
10 to 100	Cc1nc2c(N)cccc2n1-c1cncc(Nc2ccc(C(F)(F)F)cc2)n1 [compound 296, 2-methyl-1-(6-{[4-(trifluoromethyl)phenyl]amino}pyrazin-2-yl)-1H-benzimidazol-4-amine]
100 to 3000	Cc1nc(C)n(-c2cncc(Nc3ccc(C(F)(F)F)cc3)n2)c1Cl [compound 299, 6-(5-chloro-2,4-dimethyl-1H-imidazol-1-yl)-N-[4-(trifluoromethyl)phenyl]pyrazin-2-amine]
10 to 100	Cc1cn(-c2cncc(Nc3ccc(C(F)(F)F)cc3)n2)c(C)n1 [compound 300]
100 to 3000	Cc1nc2cc(F)c(F)cc2n1-c1cncc(Nc2ccc(OC(F)(F)F)c(F)c2)n1 [compound 301, 6-(5,6-difluoro-2-methyl-1H-benzimidazol-1-yl)-N-[3-fluoro-4-(trifluoromethoxy)phenyl]pyrazin-2-amine]
10 to 100	Cc1nc2cc(F)c(F)cc2n1-c1cncc(Nc2ccc(C(F)(F)F)nc2)n1 [compound 304, 6-(5,6-difluoro-2-methyl-1H-benzimidazol-1-yl)-N-[6-(trifluoromethyl)pyridin-3-yl]pyrazin-2-amine]
100 to 3000	Cc1nc(C)n(-c2cncc(Nc3ccc(OC(F)F)cc3)n2)c1Cl [compound 305, 6-(5-chloro-2,4-dimethyl-1H-imidazol-1-yl)-N-[4-(difluoromethoxy)phenyl]pyrazin-2-amine]
100 to 3000	Cc1nc2ccccc2n1-c1cncc(Nc2ccc(OCC(F)(F)F)cc2)n1 [compound 306, 6-(2-methyl-1H-benzimidazol-1-yl)-N-[4-(2,2,2-trifluoroethoxy)phenyl]pyrazin-2-amine]
100 to 3000	Cc1nc2ccccc2n1-c1cncc(Nc2ccc(OC(F)(F)C(F)F)cc2)n1 [compound 307, 6-(2-methyl-1H-benzimidazol-1-yl)-N-[4-(1,1,2,2-tetrafluoroethoxy)phenyl]pyrazin-2-amine]
1 to 10	Cc1nc2ccc(F)cn2c1-c1cncc(Nc2ccc(OC(F)F)c(F)c2)n1 [compound 309, N-[4-(difluoromethoxy)-3-fluorophenyl]-6-(6-fluoro-2-methylimidazo[1,2-a]pyridin-3-yl)pyrazin-2-amine]
10 to 100	COc1ccc2nc(C)n(-c3cncc(Nc4ccc(C(F)(F)F)cc4)n3)c2c1 [compound 317, 6-(6-methoxy-2-methyl-1H-benzimidazol-1-yl)-N-[4-(trifluoromethyl)phenyl]pyrazin-2-amine]
100 to 3000	Cc1nc(C(F)(F)F)c(C)n1-c1cncc(Nc2ccc(C(F)(F)F)cc2)n1 [compound 318, 6-[2,5-dimethyl-4-(trifluoromethyl)-1H-imidazol-1-yl]-N-[4-(trifluoromethyl)phenyl]pyrazin-2-amine]
10 to 100	Cc1nc2cc(F)c(F)cc2n1-c1cncc(Nc2ccc(OC(F)F)c(F)c2)n1 [compound 319, N-[4-(difluoromethoxy)-3-fluorophenyl]-6-(5,6-difluoro-2-methyl-1H-benzimidazol-1-yl)pyrazin-2-amine]
1 to 10	Fc1cc(Nc2cncc(-c3c(C(F)(F)F)nc4ccccn34)n2)ccc1OC(F)F [compound 323, N-[4-(difluoromethoxy)-3-fluorophenyl]-6-[2(trifluoromethyl)imidazo[1,2-a]pyridin-3-yl]pyrazin-2-amine]
10 to 100	Cc1nc2ccccc2n1-c1cncc(Nc2ccc(OC(F)F)c(F)c2)n1 [compound 324, N-[4-(difluoromethoxy)-3-fluorophenyl]-6-(2-methyl-1H-benzimidazol-1-yl)pyrazin-2-amine]
10 to 100	Cc1nc2ncccc2n1-c1cncc(Nc2ccc(OC(F)F)c(F)c2)n1 [compound 325]
10 to 100	Cc1nc2cc(F)c(F)cc2n1-c1cc(C#N)cc(Nc2ccc(OC(F)F)c(F)c2)n1 [compound 326, 2-{[4-(difluoromethoxy)-3-fluorophenyl]amino}-6-(5,6-difluoro-2-methyl-1H-benzimidazol-1-yl)pyridine-4-carbonitrile]
1 to 10	CCc1nc2ncc(Cl)cc2n1-c1cncc(Nc2ccc(C(F)(F)F)cc2)n1 [compound 327, 6-(6-chloro-2-ethyl-1H-imidazo[4,5-b]pyridin-1-yl)-N-[4-(trifluoromethyl)phenyl]pyrazin-2-amine]

same assay, conditions: read-out: ELISA EC50 value for Bmi-1 protein, Table 1, Bmi-1 sandwich ELISA

SMILES	EC50 [nM]
O=[N+]([O-])c1cc(Nc2ccc(C(F)(F)F)cc2)nc(-c2c(C(F)(F)F)nc3ccc(F)cn23)c1 [compound 286, 6-[6-fluoro-2-(trifluoromethyl)imidazo[1,2-a]pyridin-3-yl]-4-nitro-N-[4-(trifluoromethyl)phenyl]pyridin-2-amine]	10 to 100
Nc1cc(Nc2ccc(C(F)(F)F)cc2)nc(-c2c(C(F)(F)F)nc3ccc(F)cn23)c1 [compound 287, 6-[6-fluoro-2-(trifluoromethyl)imidazo[1,2-a]pyridin-3-yl]-N^2-[4-(trifluoromethyl)phenyl]pyridine-2,4-diamine]	10 to 100
